# Patent US20240025862A1, “SUBSTITUTED N-PHENYLURACILS AND SALTS THEREOF, AND USE THEREOF AS HERBICIDAL ACTIVE SUBSTANCES” (Bayer Aktiengesellschaft, priority 2020, published 2024)
# Tests used:
# Type in all cases: in vivo
# [1] = test system: Abutilon theophrasti (ABUTH); experiment: Post-emergence herbicidal action, greenhouse pot test; settings: rated visually after about 3 weeks vs untreated controls, 100% = plants have died
# Outline: (§1)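 Activity was scored by eye about 3 weeks after treatment against untreated plants, where 100% means dead plants and 0% means no difference. Plants at the one-leaf stage received a foliar spray of WP or EC formulations in water plus 0.5% additive (600 l/ha, up to 20 g/ha). Plants were grown in sandy loam pots in a greenhouse for 2–3 weeks before spraying.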
# [2] = test system: Amaranthus retroflexus (AMARE); experiment: as above; settings: rated visually after about 3 weeks vs untreated controls, 100% = plants have died
# Outline: as §1
# [3] = test system: Pharbitis purpurea (PHBPU); experiment: as above
# Outline: as §1
# [4] = test system: Polygonum convolvulus (POLCO); experiment: as above
# Outline: as §1
# [5] = test system: Veronica persica (VERPE); experiment: as above
# Outline: as §1
# [6] = test system: Viola tricolor (VIOTR); experiment: as above
# Outline: as §1
# [7] = test system: Alopecurus myosuroides (ALOMY); experiment: Post-emergence herbicidal action, greenhouse pot test (also comparative test C); settings: rated visually after about 3 weeks vs untreated controls, 100% = plants have died
# Outline: (§2)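 Greenhouse pot plants in sandy loam were sprayed post-emergence at the one-leaf stage (2–3 weeks after sowing) with WP or EC formulations plus 0.5% additive at 600 l/ha water. Activity was rated visually after about 3 weeks versus untreated controls (100% = dead, 0% = like control); rates were 20 g/ha or less, and 5 g/ha or less in the comparative test.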
# [8] = test system: Echinochloa crus-galli (ECHCG); experiment: as above
# Outline: as §2
# [9] = test system: Matricaria inodora (MATIN); experiment: as above
# Outline: as §2
# [10] = test system: Setaria viridis (SETVI); experiment: as above
# Outline: as §2
# [11] = test system: Brassica napus (BRSNW); experiment: Post-emergence crop plant compatibility, greenhouse pot test; settings: 1.25 g/ha, vs untreated controls
# Outline: (§3)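 Values are visual % damage versus untreated controls (100% = plants died) about 3 weeks after treatment. Plants in sandy loam were sprayed at the one-leaf stage, 2–3 weeks after sowing, with aqueous WP/EC preparations plus 0.5% additive at 600 l/ha; a/b/c mark different dose levels.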
# [12] = test system: Triticum aestivum (TRZAS); experiment: as above; settings: 1.25 g/ha, vs untreated controls
# Outline: as §3
# [13] = test system: Oryza sativa (ORYSA); experiment: Post-emergence crop plant compatibility, greenhouse pot test (also comparative test C); settings: vs untreated controls
# Outline: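 Visual damage versus untreated plants (0% = like control, 100% = plants died) was scored about 3 weeks after a post-emergence spray in greenhouse pots. Treatment: one-leaf stage, WP or EC in water at 600 l/ha with 0.5% additive; a/b/c mark different dosages on the same crop.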
# [14] = test system: Abutilon theophrasti (ABUTH); experiment: Pre-emergence herbicidal action, greenhouse pot test; settings: scored after about 3 weeks
# Excerpt: (§4) Seeds of monocotyledonous and dicotyledonous weed plants and crop plants were placed in plastic or organic planting pots and covered with soil. The compounds of the invention, formulated in the form of wettable powders (WP) or as emulsion concentrates (EC), were then applied to the surface of the covering soil as aqueous suspension or emulsion with addition of 0.5% additive at a water application rate equivalent to 600 l/ha (converted). After the treatment, the pots were placed in a greenhouse and kept under good growth conditions for the test plants. After about 3 weeks, the effect of the preparations was scored visually in comparison with untreated controls as percentages. For example, 100% activity=the plants have died, 0% activity=like control plants.
# (§5) Tables B1 to B10 below show the effects of selected compounds of the general formula (I) according to Tables I.1 to I.33 on various harmful plants and at an application rate corresponding to 80 g/ha and less, which were obtained by the experimental method specified above. The appendices “a”, “b” and “c” give differentiation by different dosage with otherwise the same harmful plants tested.
# [15] = test system: Alopecurus myosuroides (ALOMY); experiment: as above; settings: scored after about 3 weeks
# Excerpt: as §4, §5
# [16] = test system: Amaranthus retroflexus (AMARE); experiment: as above; settings: scored after about 3 weeks
# Excerpt: as §4, §5
# [17] = test system: Avena fatua (AVEFA); experiment: as above; settings: 80 g/ha, scored after about 3 weeks
# Excerpt: as §4, §5
# [18] = test system: Digitaria sanguinalis (DIGSA); experiment: as above; settings: scored after about 3 weeks
# Excerpt: as §4, §5
# [19] = test system: Echinochloa crus-galli (ECHCG); experiment: as above; settings: scored after about 3 weeks
# Excerpt: as §4, §5
# [20] = test system: Lolium rigidum (LOLRI); experiment: as above; settings: scored after about 3 weeks
# Excerpt: as §4, §5
# [21] = test system: Matricaria inodora (MATIN); experiment: as above; settings: scored after about 3 weeks
# Excerpt: as §4, §5
# [22] = test system: Pharbitis purpurea (PHBPU); experiment: as above; settings: scored after about 3 weeks
# Excerpt: as §4, §5
# [23] = test system: Veronica persica (VERPE); experiment: as above; settings: scored after about 3 weeks
# Excerpt: as §4, §5
# [24] = test system: Glycine max (GLXMA); experiment: Pre-emergence crop plant compatibility, greenhouse pot test; settings: 20 g/ha
# Excerpt: as §4
# (§6) The observed effects on selected crop plants are reported here in comparison to the untreated controls (values in %).
# [25] = test system: Zea mays (ZEAMX); experiment: as above; settings: 20 g/ha
# Excerpt: as §4, §6
# [26] = test system: Avena fatua (AVEFA); experiment: Post-emergence herbicidal action, greenhouse pot test; settings: 20 g/ha, rated visually after about 3 weeks vs untreated controls, 100% = plants have died
# Outline: as §1
# [27] = test system: Hordeum murinum (HORMU); experiment: as above; settings: rated visually after about 3 weeks vs untreated controls, 100% = plants have died
# Outline: as §1
# [28] = test system: Lolium rigidum (LOLRI); experiment: as above; settings: dosage 20 g/ha
# Outline: as §1
# [29] = test system: Stellaria media (STEME); experiment: as above
# Outline: as §1
# [30] = test system: Zea mays (ZEAMX); experiment: Post-emergence crop plant compatibility, greenhouse pot test; settings: 1.25 g/ha, vs untreated controls
# Outline: as §3
structure (smiles),measurement,setting,value
COCCOCCOC(=O)COc1ccccc1Oc1cc(-n2c(=O)cc(C(F)(F)F)n(C)c2=O)c(F)cc1Cl [I.7-23],Post-emergence action at 1.25 g/ha against ABUTH in %,[1],100%
same,Post-emergence action at 5 g/ha against ABUTH in %,[1],100%
same,Post-emergence action at 1.25 g/ha against AMARE in %,[2],100%
same,Post-emergence action at 5 g/ha against AMARE in %,[2],100%
same,Post-emergence action against PHBPU in %,[3]; dosage 5 g/ha,100%
same,Post-emergence action against POLCO in %,[4]; dosage 5 g/ha,100%
same,Post-emergence action against VERPE,[5]; 1.25 g/ha,90%
same,Post-emergence action against VERPE,[5]; 5 g/ha,100%
same,Post-emergence action against VIOTR,[6]; 1.25 g/ha,100%
same,Post-emergence action against VIOTR,[6]; 5 g/ha,100%
same,Post-emergence action at 1.25 g/ha against ALOMY in %,[7]; 1.25 g/ha,80%
same,Post-emergence action at 5 g/ha against ALOMY in %,[7],100%
same,Post-emergence action against ECHCG in %,[8]; dosage 5 g/ha,100%
same,Post-emergence action against MATIN in %,[9]; dosage 1.25 g/ha,90%
same,Post-emergence action against MATIN in %,[9]; dosage 5 g/ha,100%
same,Post-emergence action against SETVI in %,[10]; dosage 1.25 g/ha,100%
same,Post-emergence action against SETVI in %,[10]; dosage 5 g/ha,100%
same,Post-emergence action against BRSNW (crop plant compatibility),[11],20%
same,Post-emergence action against TRZAS (crop plant compatibility),[12],10%
same,Post-emergence action against ORYSA (crop plant compatibility),[13]; 1.25 g/ha,10%
same,Post-emergence action against ORYSA (crop plant compatibility),[13]; 5 g/ha,20%
same,Pre-emergence action against ABUTH in %,[14]; 20 g/ha,100%
same,Pre-emergence action against ABUTH in %,[14]; 80 g/ha,100%
same,Pre-emergence action against ALOMY in %,[15]; 20 g/ha,90%
same,Pre-emergence action against ALOMY in %,[15]; 80 g/ha,100%
same,Pre-emergence action against AMARE in %,[16]; 20 g/ha,100%
same,Pre-emergence action against AMARE in %,[16]; 80 g/ha,100%
same,Pre-emergence action against AVEFA in %,[17],90%
same,Pre-emergence action against DIGSA in %,[18]; 20 g/ha,100%
same,Pre-emergence action against DIGSA in %,[18]; 80 g/ha,100%
same,Pre-emergence action against ECHCG in %,[19]; 20 g/ha,80%
same,Pre-emergence action against ECHCG in %,[19]; 80 g/ha,90%
same,Pre-emergence action against LOLRI in %,[20]; 20 g/ha,90%
same,Pre-emergence action against LOLRI in %,[20]; 80 g/ha,100%
same,Pre-emergence action against MATIN in %,[21]; 20 g/ha,100%
same,Pre-emergence action against MATIN in %,[21]; 80 g/ha,100%
same,Pre-emergence action against PHBPU in %,[22]; 20 g/ha,100%
same,Pre-emergence action against PHBPU in %,[22]; 80 g/ha,100%
same,Pre-emergence action against VERPE in %,[23]; 20 g/ha,100%
same,Pre-emergence action against VERPE in %,[23]; 80 g/ha,100%
same,Pre-emergence action against GLXMA in %,[24],10%
same,Pre-emergence action against ZEAMX in %,[25],20%
COCCOCCOC(=O)COc1ccccc1Sc1cc(-n2c(=O)cc(C(F)(F)F)n(C)c2=O)c(F)cc1Cl [I.1-23],Post-emergence action at 1.25 g/ha against ABUTH in %,[1],100%
same,Post-emergence action at 5 g/ha against ABUTH in %,[1],100%
same,Post-emergence action at 20 g/ha against ABUTH in %,[1]; 20 g/ha,100%
same,Post-emergence action at 1.25 g/ha against AMARE in %,[2],100%
same,Post-emergence action at 5 g/ha against AMARE in %,[2],100%
same,Post-emergence action at 20 g/ha against AMARE in %,[2]; 20 g/ha,100%
same,Post-emergence action at 20 g/ha against AVEFA in %,[26],80%
same,Post-emergence action at 5 g/ha against HORMU in %,[27]; 5 g/ha,80%
same,Post-emergence action at 20 g/ha against HORMU in %,[27]; 20 g/ha,100%
same,Post-emergence action against LOLRI in %,[28],80%
same,Post-emergence action against PHBPU in %,[3]; dosage 1.25 g/ha,100%
same,Post-emergence action against PHBPU in %,[3]; dosage 5 g/ha,100%
same,Post-emergence action against PHBPU in %,[3]; dosage 20 g/ha,100%
same,Post-emergence action against POLCO in %,[4]; dosage 1.25 g/ha,100%
same,Post-emergence action against POLCO in %,[4]; dosage 5 g/ha,100%
same,Post-emergence action against POLCO in %,[4]; dosage 20 g/ha,100%
same,Post-emergence action against STEME,[29]; 1.25 g/ha,80%
same,Post-emergence action against STEME,[29]; 5 g/ha,100%
same,Post-emergence action against STEME,[29]; 20 g/ha,100%
same,Post-emergence action against VERPE,[5]; 1.25 g/ha,100%
same,Post-emergence action against VERPE,[5]; 5 g/ha,100%
same,Post-emergence action against VERPE,[5]; 20 g/ha,100%
same,Post-emergence action against VIOTR,[6]; 1.25 g/ha,100%
same,Post-emergence action against VIOTR,[6]; 5 g/ha,100%
same,Post-emergence action against VIOTR,[6]; 20 g/ha,100%
same,Post-emergence action at 5 g/ha against ALOMY in %,[7],90%
same,Post-emergence action at 20 g/ha against ALOMY in %,[7]; 20 g/ha,90%
same,Post-emergence action at 1.25 g/ha against ECHCG in %,"[8]; 1.25 g/ha, rated visually after about 3 weeks vs untreated controls, 100% = plants have died",90%
same,Post-emergence action against ECHCG in %,[8]; dosage 5 g/ha,100%
same,Post-emergence action against ECHCG in %,[8]; dosage 20 g/ha,100%
same,Post-emergence action against MATIN in %,[9]; dosage 1.25 g/ha,80%
same,Post-emergence action against MATIN in %,[9]; dosage 5 g/ha,100%
same,Post-emergence action against MATIN in %,[9]; dosage 20 g/ha,100%
same,Post-emergence action against SETVI,[10]; 20 g/ha,100%
same,Post-emergence action against SETVI in %,[10]; dosage 1.25 g/ha,100%
same,Post-emergence action against SETVI in %,[10]; dosage 5 g/ha,100%
same,Post-emergence action against BRSNW (crop plant compatibility),[11],20%
same,Post-emergence action against TRZAS (crop plant compatibility),[12],20%
same,Post-emergence action against ZEAMX (crop plant compatibility),[30],10%
same,Post-emergence action against ORYSA (crop plant compatibility),[13]; 1.25 g/ha,20%
